Data published in publication PMC8364686, “Safety, tolerability, pharmacokinetics and pharmacodynamics of single oral doses of BI 187004, an inhibitor of 11beta-hydroxysteroid dehydrogenase-1, in healthy male volunteers with overweight or obesity” (Clinical Diabetes and Endocrinology, 2021).

Test: Plasma pharmacokinetics of BI 187004 after single oral doses (LC–MS/MS)
Conditions: male, human, plasma, po
Method: This was a randomized, double-blind, placebo-controlled, single rising dose study conducted at a single center in Germany. […] Follow-up on an ambulatory basis was performed between 11 and 15 days after study drug administration. […] At the time of use the oral solution for dosing was prepared using the PFOS and a co-supplied aqueous solvent containing HP-beta-cyclodextrin 100 mg/mL. The lowest dose level solutions were prepared by further dilution of the lower concentration solution with additional solvent.
For each accepted run, the acceptance criteria for the calibration standards and quality controls were met.

N#Cc1ccc2c(c1)[C@H]1CCCN(C(=O)c3ccc4[nH]cnc4c3)[C@H]1C2 [BI 187004]
concentration at 2.5 h (2.5 mg, Plasma concentration gMean, 2.5 mg single oral, 2.5 h): 7.33 nM
concentration at 3 h (2.5 mg, Plasma concentration gMean, 2.5 mg single oral, 3 h): 6.19 nM
concentration at 4 h (2.5 mg, Plasma concentration gMean, 2.5 mg single oral, 4 h): 5.87 nM
concentration at 5 h (2.5 mg, Plasma concentration gMean, 2.5 mg single oral, 5 h): 6.61 nM
concentration at 6 h (2.5 mg, Plasma concentration gMean, 2.5 mg single oral, 6 h): 5.38 nM
concentration at 10 h (2.5 mg, Plasma concentration gMean, 2.5 mg single oral, 10 h): 4.38 nM
concentration at 12 h (2.5 mg, Plasma concentration gMean, 2.5 mg single oral, 12 h): 4.53 nM
concentration at 24 h (2.5 mg, Plasma concentration gMean, 2.5 mg single oral, 24 h): 4.54 nM
concentration at 48 h (2.5 mg, Plasma concentration gMean, 2.5 mg single oral, 48 h): 3.93 nM
concentration at 8 h (2.5 mg, Plasma concentration, individual subjects, 2.5 mg single oral, planned time 8 h): 6.73 nM
concentration at 10 h (2.5 mg, Plasma concentration, individual subjects, 2.5 mg single oral, planned time 10 h): 5.99 nM
concentration at 12 h (2.5 mg, Plasma concentration, individual subjects, 2.5 mg single oral, planned time 12 h): 6.44 nM
concentration at 24 h (2.5 mg, Plasma concentration, individual subjects, 2.5 mg single oral, planned time 24 h): 4.19 nM
concentration at 36 h (2.5 mg, Plasma concentration, individual subjects, 2.5 mg single oral, planned time 36 h): 5.06 nM
concentration at 48 h (2.5 mg, Plasma concentration, individual subjects, 2.5 mg single oral, planned time 48 h): 3.58 nM
concentration at 72 h (2.5 mg, Plasma concentration, individual subjects, 2.5 mg single oral, planned time 72 h): 3.34 nM
concentration at 96 h (2.5 mg, Plasma concentration, individual subjects, 2.5 mg single oral, planned time 96 h): 3.04 nM
AUC(0-inf) (5 mg): 2.5 µM·h
AUC(0-t) (5 mg): 1.49 µM·h
Cmax (5 mg): 150 nM
Tmax (5 mg): 1 h
Vd/F (5 mg): 281 L
half-life (5 mg): 33.5 h
concentration at 24 h (5 mg, C24 gMean (%gCV), 5 mg single oral dose): 30 nM
concentration at 0.5 h (5 mg, Plasma concentration Mean, 5 mg single oral): 101 nM
concentration at 1 h (5 mg, Plasma concentration Mean, 5 mg single oral, 1 h): 147 nM
concentration at 1.5 h (5 mg, Plasma concentration Mean, 5 mg single oral, 1.5 h): 135 nM
concentration at 2 h (5 mg, Plasma concentration Mean, 5 mg single oral, 2 h): 122 nM
concentration at 2.5 h (5 mg, Plasma concentration Mean, 5 mg single oral, 2.5 h): 123 nM
concentration at 3 h (5 mg, Plasma concentration Mean, 5 mg single oral, 3 h): 114 nM
concentration at 4 h (5 mg, Plasma concentration Mean, 5 mg single oral, 4 h): 105 nM
concentration at 5 h (5 mg, Plasma concentration Mean, 5 mg single oral, 5 h): 97.4 nM
concentration at 6 h (5 mg, Plasma concentration Mean, 5 mg single oral, 6 h): 81.2 nM
concentration at 8 h (5 mg, Plasma concentration Mean, 5 mg single oral, 8 h): 72.9 nM
concentration at 10 h (5 mg, Plasma concentration Mean, 5 mg single oral, 10 h): 58 nM
concentration at 12 h (5 mg, Plasma concentration Mean, 5 mg single oral, 12 h): 49.7 nM
concentration at 24 h (5 mg, Plasma concentration Mean, 5 mg single oral, 24 h): 31 nM
concentration at 36 h (5 mg, Plasma concentration Mean, 5 mg single oral, 36 h): 14.9 nM
concentration at 48 h (5 mg, Plasma concentration Mean, 5 mg single oral, 48 h): 13.1 nM
concentration at 72 h (5 mg, Plasma concentration Mean, 5 mg single oral, 72 h): 7.42 nM
concentration at 96 h (5 mg, Plasma concentration Mean, 5 mg single oral, 96 h): 4.78 nM
concentration at 0.5 h (5 mg, Plasma concentration Median, 5 mg single oral): 128 nM
concentration at 1 h (5 mg, Plasma concentration Median, 5 mg single oral, 1 h): 141 nM
concentration at 1.5 h (5 mg, Plasma concentration Median, 5 mg single oral, 1.5 h): 140 nM
concentration at 2 h (5 mg, Plasma concentration Median, 5 mg single oral, 2 h): 126 nM
concentration at 2.5 h (5 mg, Plasma concentration Median, 5 mg single oral, 2.5 h): 121 nM
concentration at 3 h (5 mg, Plasma concentration Median, 5 mg single oral, 3 h): 113 nM
concentration at 4 h (5 mg, Plasma concentration Median, 5 mg single oral, 4 h): 98.4 nM
concentration at 5 h (5 mg, Plasma concentration Median, 5 mg single oral, 5 h): 98.1 nM
concentration at 6 h (5 mg, Plasma concentration Median, 5 mg single oral, 6 h): 78.8 nM
concentration at 8 h (5 mg, Plasma concentration Median, 5 mg single oral, 8 h): 71 nM
concentration at 10 h (5 mg, Plasma concentration Median, 5 mg single oral, 10 h): 57.1 nM
concentration at 12 h (5 mg, Plasma concentration Median, 5 mg single oral, 12 h): 50.3 nM
concentration at 24 h (5 mg, Plasma concentration Median, 5 mg single oral, 24 h): 32.2 nM
concentration at 36 h (5 mg, Plasma concentration Median, 5 mg single oral, 36 h): 15.5 nM
concentration at 48 h (5 mg, Plasma concentration Median, 5 mg single oral, 48 h): 11.2 nM
concentration at 72 h (5 mg, Plasma concentration Median, 5 mg single oral, 72 h): 6.1 nM
concentration at 96 h (5 mg, Plasma concentration Median, 5 mg single oral, 96 h): 4.24 nM
concentration at 0.5 h (5 mg, Plasma concentration gMean, 5 mg single oral): 63.7 nM
concentration at 1 h (5 mg, Plasma concentration gMean, 5 mg single oral, 1 h): 144 nM
concentration at 1.5 h (5 mg, Plasma concentration gMean, 5 mg single oral, 1.5 h): 134 nM
concentration at 2 h (5 mg, Plasma concentration gMean, 5 mg single oral, 2 h): 121 nM
concentration at 2.5 h (5 mg, Plasma concentration gMean, 5 mg single oral, 2.5 h): 122 nM
concentration at 3 h (5 mg, Plasma concentration gMean, 5 mg single oral, 3 h): 113 nM
concentration at 4 h (5 mg, Plasma concentration gMean, 5 mg single oral, 4 h): 104 nM
concentration at 5 h (5 mg, Plasma concentration gMean, 5 mg single oral, 5 h): 96 nM
concentration at 6 h (5 mg, Plasma concentration gMean, 5 mg single oral, 6 h): 79.9 nM
concentration at 8 h (5 mg, Plasma concentration gMean, 5 mg single oral, 8 h): 71.8 nM
concentration at 10 h (5 mg, Plasma concentration gMean, 5 mg single oral, 10 h): 56.8 nM
concentration at 12 h (5 mg, Plasma concentration gMean, 5 mg single oral, 12 h): 48.5 nM
concentration at 24 h (5 mg, Plasma concentration gMean, 5 mg single oral, 24 h): 30 nM
concentration at 36 h (5 mg, Plasma concentration gMean, 5 mg single oral, 36 h): 14.2 nM
concentration at 48 h (5 mg, Plasma concentration gMean, 5 mg single oral, 48 h): 12.5 nM
concentration at 72 h (5 mg, Plasma concentration gMean, 5 mg single oral, 72 h): 7.05 nM
concentration at 96 h (5 mg, Plasma concentration gMean, 5 mg single oral, 96 h): 4.6 nM
concentration at 1 h (5 mg, Plasma concentration, individual subjects, 5 mg single oral, planned time 1 h): 112 nM
concentration at 1.5 h (5 mg, Plasma concentration, individual subjects, 5 mg single oral, planned time 1.5 h): 144 nM
concentration at 2 h (5 mg, Plasma concentration, individual subjects, 5 mg single oral, planned time 2 h): 127 nM
concentration at 2.5 h (5 mg, Plasma concentration, individual subjects, 5 mg single oral, planned time 2.5 h): 122 nM
concentration at 3 h (5 mg, Plasma concentration, individual subjects, 5 mg single oral, planned time 3 h): 118 nM
concentration at 4 h (5 mg, Plasma concentration, individual subjects, 5 mg single oral, planned time 4 h): 99.5 nM
concentration at 5 h (5 mg, Plasma concentration, individual subjects, 5 mg single oral, planned time 5 h): 96.9 nM
concentration at 6 h (5 mg, Plasma concentration, individual subjects, 5 mg single oral, planned time 6 h): 80.6 nM
concentration at 8 h (5 mg, Plasma concentration, individual subjects, 5 mg single oral, planned time 8 h): 72.1 nM
concentration at 24 h (5 mg, Plasma concentration, individual subjects, 5 mg single oral, planned time 24 h): 35.1 nM
concentration at -0.5 h (5 mg, Plasma concentration, individual subjects, 5 mg single oral, planned time –0.5 h): 90.2 nM
AUC(0-inf) (10 mg): 5.91 µM·h
AUC(0-t) (10 mg): 4.38 µM·h
Cmax (10 mg): 502 nM
Tmax (10 mg): 1 h
Vd/F (10 mg): 169 L
half-life (10 mg): 23.7 h
concentration at 24 h (10 mg, C24 gMean (%gCV), 10 mg single oral dose): 71.3 nM
concentration at 0.5 h (10 mg, Plasma concentration Mean, 10 mg single oral): 365 nM
concentration at 1 h (10 mg, Plasma concentration Mean, 10 mg single oral, 1 h): 429 nM
concentration at 1.5 h (10 mg, Plasma concentration Mean, 10 mg single oral, 1.5 h): 438 nM
concentration at 2 h (10 mg, Plasma concentration Mean, 10 mg single oral, 2 h): 382 nM
concentration at 2.5 h (10 mg, Plasma concentration Mean, 10 mg single oral, 2.5 h): 376 nM
concentration at 3 h (10 mg, Plasma concentration Mean, 10 mg single oral, 3 h): 339 nM
concentration at 4 h (10 mg, Plasma concentration Mean, 10 mg single oral, 4 h): 346 nM
concentration at 5 h (10 mg, Plasma concentration Mean, 10 mg single oral, 5 h): 277 nM
concentration at 6 h (10 mg, Plasma concentration Mean, 10 mg single oral, 6 h): 260 nM
concentration at 8 h (10 mg, Plasma concentration Mean, 10 mg single oral, 8 h): 213 nM
concentration at 10 h (10 mg, Plasma concentration Mean, 10 mg single oral, 10 h): 182 nM
concentration at 12 h (10 mg, Plasma concentration Mean, 10 mg single oral, 12 h): 146 nM
